Data set [1] has as its system ARPE-19 cells. The experiment in a line: Three-step staining (dye, calcein-AM, propidium iodide) with microphotographs. The format is cell-based, human. As to conditions: 0.025% in PBS, room temperature, 15 minutes; 20% ethanol 5 minutes to induce death in some cells; FIG. 3. The protocol:
An experiment was carried out with ARPE-19 cells and staining with compound (6).
A three-step staining procedure was used: first the dye was introduced, then calcein-acetoxymethyl ester (calcein-AM), then propidium iodide (PI). Calcein-AM (which is non-fluorescent) is able to penetrate cell membranes and is hydrolyzed by intracellular esterases to calcein, which is fluorescent and which cannot escape through the intact cell membrane. Cells fluorescent for calcein-AM are therefore intact and living cells. Dead cells (cells with a compromised cell membrane) might still hydrolyze calcein-AM, but they are not able to retain the calcein. Cells with compromised cell membranes can take up propidium iodide, a dye which intercalates into DNA and turns fluorescent upon binding.
Cells were grown in 48-well plates. Growth medium was removed and a solution of 20% ethanol was added for 5 minutes in order to induce cell death in some cells. The ethanol solutions were removed. Staining with compound (6) (0.025%) in PBS was carried out at room temperature for 15 minutes. The dye was washed off with PBS. The cells were then exposed to calcein-acetoxymethyl ester (calcein-AM) in PBS for 15 minutes at room temperature. […]

A further data set relates to ARPE19 cells. The experiment in a line: Staining of dead cells and/or living cells: dye content in ARPE19 cells by spectrophotometry. The format is cell-based, human. As to conditions: 15 minutes staining; for Adead (maximum absorbance for dead cells): ARPE19 cells fixed with 70% ethanol 5 minutes; for Aliving (maximum absorbance for living cells): living ARPE19 cells.

The test system of data set [2] is ARPE-19 cells. Description: Toxicity: survival of cells after exposure to dyes. The format is cell-based. As to the method: A preferred dye, being either a compound according to the invention or an additional dye as defined above, has a good staining ability for dead cells, a minimal cellular toxicity in the dark, and a minimal cellular toxicity in the strong illumination necessary for surgery.
According to a preferred definition, a low toxicity means that at least 60%, 65%, 70%, 75%, 80%, 85%, 90% or 95% cell viability is retained after incubation in PBS for 15 minutes at 37° C. and 5% CO2, as determined using the methodology of Example 6.

The nature of data set [3]: Staining ability on PVDF filter as ILM model. The source says: Correlation between staining of the filter and observed staining of the ILM in patients (data from (Rodrigues, Penha et al. 2010)) show a good correlation (see FIG. 1). A 96-well filter (MSBVN1210 MultiScreen BV Filter Plate, Merck-Millipore, Darmstadt, Germany) was used as ILM model. The filter material is hydrophilic polyvinylidene difluoride (PVDF). A Collagen Cell Carrier membrane (CCC) (Viscofan, Weinheim, Germany) was used as model for the ERM. Punches of the membrane (5 mm diameter) were fixed to the filter with a hypodermic needle and soaked in PBS for 30 minutes. The PBS was removed by vacuum filtration, and 50 μL of the dye solution was pipetted into the filter well. After 30 s, the dye was removed by vacuum filtration, and membrane and filter were washed three times with PBS. The membrane was removed and put into a 96-well plate for spectrum recording, using a Tecan Spark 20M (Tecan Group Ltd., Männedorf, Switzerland) plate reader. The filter staining of the compounds (6) and (8) according to the invention are shown in FIG. 2 in comparison to that of BBG. […] The intensity of the grey values was measured. For BBG the mean intensity was 201, for compound (6) it was 175, for compound (8) it was 197. On the scale used, 255 is white and 0 is black.

The mark [4] stands for this setting: concentration of the dye 0.025%.

This is an account of results in US20230310661A1, “OPHTHALMIC DYE” (Vitreq B.V., priority 2020, published 2023).

Each structure is given as a SMILES string.

For `CCN(Cc1cccc(S(=O)(=O)O)c1)c1ccc(C(=C2C=CC(=[N+](CC)Cc3cccc(S(=O)(=O)[O-])c3)C=C2C)c2ccc(Nc3ccc(OC)cc3)cc2)c(C)c1` [Compound (6)], the “Staining of living cells (microscopy)” value in the data set on ARPE-19 cells [1] was “does not stain living cells”. Moreover, the “Adead (maximum absorbance for dead cells)” value with ARPE19 cells (setting [4]) was 0.3630; in the data set with ARPE19 cells (dye 0.1% w/v in PBS), 0.8755. Further, the “Aliving (maximum absorbance for living cells)” value in the data set with ARPE19 cells (setting [4]) was determined as 0.0635; in the data set with ARPE19 cells (dye 0.1% w/v in PBS, <0.07 = does not stain) it was 0.0603. In addition, in the data set on ARPE-19 cells [2] (0.1% in PBS for 15 minutes at 37° C.), the “Survival of ARPE-19 cells” value is on record as 103%. Besides, the Survival with ARPE-19 cells [2] (dye concentration 0.025%) is 103%. Further, the “Ability to stain the ILM (comparative statement)” value in data set [3] (PVDF filter as model for the ILM) is reported as “increased ability to stain the ILM compared to BBG”. The “Mean intensity of the grey values of stained filter” value in data set [3] (dye 0.025%, 30 s contact, scale 255 is white and 0 is black) was 175. In addition, in data set [3] (equal concentrations of 0.025%, FIG. 2), the “Filter staining in comparison to BBG” value was “Much stronger staining”.
